# Molecular target: T1, IDO (Homo sapiens, UniProt P14902)
# T1 construct: endogenous in cells; host or cells: HeLa cells treated with IFNγ
# Test: Hela cell-based IDO inhibitory activity test (IFNγ added)
# Conditions: Hela cells with IFNγ, 48 hours incubation, OD 480 nm
# Method: 2. Hela Cell-Based IDO Inhibitory Activity Test Method
# The first step: cell plating. Prepare complete medium and mix well. Cell lines that are in good growth state are selected. Remove the cell culture flask from the incubator and check the cell name, media type and cell generation number on the bottle. The medium was discarded, digested with trypsin, and after digestion, the cells were neutralized with serum-containing medium, and the cells were blown to cause the cells to fall off. Pipette the cell suspension into a centrifuge tube and centrifuge at a speed of 800-1000 for 3-5 minutes. Aspirate the cell supernatant from the centrifuge tube. Add an appropriate volume of medium to the tube and gently blister to resuspend the cells. Count using a Vi-Cell XR cytometer. Adjust the cell suspension to the appropriate concentration. The cell suspension was added to a white-well 96-well plate at 80 μl/well according to the schematic below. The second step: preparation and addition of the compound. Compounds were formulated in DMSO at 600 μM and the compounds were diluted in DMSO according to a multiple of the following table to give 6 concentration gradients of the compound. The 200× compound prepared in DMSO was formulated into a 10× dilution solution in proportion to the corresponding cell culture medium. After 24 hours of cell seeding, 10 μL of 10× corresponding compound dilution and 10 μL of 10×IFNγ were added to each well. Incubate for 48 hours in a 37° C. incubator. The third step: detection and analysis. Cell morphology was observed under an inverted microscope. 80 μL of the supernatant was added to a 3894 plate, 10 μL of 6.1 N trichloroacetic acid was added to each well, shaken for 2 minutes, and placed in a 50-degree incubator for 30 minutes. Centrifuge, 2500 rpm for 10 minutes.
# Take 70 μL of the supernatant and transfer to a 3635 UV plate, add 70 μL of the reaction solution, and shake for 2 minutes to make the reaction uniform. Use EnSpire (PE) to detect data with an OD of 480 nm. The cell culture plate 3903 was allowed to stand at room temperature for 30 minutes. 100 μL/well of the cell activity detecting reagent was added to the culture plate. Mix on a shaker for 2 minutes to induce cell lysis. The 96-well plate was allowed to stand at room temperature for 10 minutes to stabilize the luminescence signal. Paste the white base film on the bottom of the plate and tested with Flexstation3 plate (the relevant setting is: Illumination, integration time 500 ms). Record the experimental results obtained from the analysis.
# The IC50 value is expressed in the following manner: […]
# T1 sequence (P14902 whole entry): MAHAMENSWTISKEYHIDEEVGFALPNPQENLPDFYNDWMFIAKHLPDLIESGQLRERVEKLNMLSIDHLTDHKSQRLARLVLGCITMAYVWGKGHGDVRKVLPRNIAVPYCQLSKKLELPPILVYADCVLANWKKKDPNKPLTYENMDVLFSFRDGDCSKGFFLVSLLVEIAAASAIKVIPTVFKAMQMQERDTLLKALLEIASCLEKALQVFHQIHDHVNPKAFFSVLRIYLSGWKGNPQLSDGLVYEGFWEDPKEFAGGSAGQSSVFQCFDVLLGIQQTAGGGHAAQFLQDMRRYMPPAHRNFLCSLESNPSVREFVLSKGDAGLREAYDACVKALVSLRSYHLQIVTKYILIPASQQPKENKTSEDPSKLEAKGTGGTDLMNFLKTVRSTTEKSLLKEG
row,Structure (SMILES),IC50 [nM]
1,CC(C(=O)Nc1cnc(N)nc1)[C@H]1C[C@H]2C[C@@H](c3ccnc4ccc(F)cc34)C[C@H]2C1 (stereo partly shown) [Compound 30],> 100
2,O=C(C[C@@H]1C[C@H]2CC(c3ccnc4ccc(F)cc34)C[C@H]2C1)Nc1ccc(Cl)cn1 (stereo partly shown) [Compound 21],5 to 25
3,C#Cc1ccc(NC(=O)C[C@@H]2C[C@@H]3CC(c4ccnc5ccc(F)cc45)=C[C@@H]3C2)cn1 [Compound 64],≤ 5
4,Cn1ncc2cc(NC(=O)C[C@H]3C[C@H]4CC(c5ccnc6ccc(F)cc56)C[C@H]4C3)ccc21 (stereo partly shown) [Compound 15],> 100
5,O=C(C[C@@H]1C[C@@H]2C[C@@]3(c4ccnc5ccc(F)cc45)O[C@H]3[C@@H]2C1)Nc1ccc(Cl)cc1 [Compound 49],5 to 25
6,CC(C)(O)C#Cc1ccc(NC(=O)C[C@@H]2C[C@H]3CC(c4ccnc5ccc(F)cc45)C[C@H]3C2)nc1 (stereo partly shown) [Compound 103],> 100
7,O=C(C[C@H]1C[C@H]2CC(c3ccnc4ccc(F)cc34)C[C@H]2C1)Nc1ccc2c(c1)OC(F)(F)O2 (stereo partly shown) [Compound 16],> 100
8,C#Cc1ccc(NC(=O)[C@H](C)[C@@H]2C[C@H]3CC(c4ccnc5ccc(F)cc45)C[C@H]3C2)nc1 (stereo partly shown) [Compound 75],5 to 25
9,N#Cc1ccc(NC(=O)C[C@H]2C[C@@H]3C[C@H](c4ccnc5ccc(F)cc45)C[C@@H]3C2)nc1 [Compound 70],≤ 5
10,C#Cc1ccc(NC(=O)C[C@@H]2C[C@H]3CC(c4ccnc5ccc(F)cc45)C[C@H]3C2)cc1 (stereo partly shown) [Compound 20],≤ 5
11,O=C(C[C@@H]1C[C@@H]2CC(c3ccnc4ccc(F)cc34)=C[C@@H]2C1)Nc1ccc(Cl)nc1 (racemic) [Compound 62],≤ 5
12,O=C(CN1C[C@H]2C[C@@H](c3ccnc4ccc(F)cc34)C[C@H]2C1)Nc1ccc(Cl)cc1 [Compound 46],25 to 100
13,CC(C)(C(=O)Nc1ccc(Cl)cn1)N1C[C@H]2C[C@@H](c3ccnc4ccc(F)cc34)C[C@H]2C1 [Compound 100],> 100
14,"C[C@H](C(=O)Nc1ccc(Cl)cn1)[C@H]1C[C@H]2CC(c3ccnc4ccc(F)cc34)C[C@H]2C1 (single isomer, unassigned) [Compound 26B]",≤ 5
15,C#Cc1ccc(NC(=O)C[C@H]2C[C@H]3CC(c4ccnc5ccc(F)cc45)C[C@H]3C2)cc1 (stereo partly shown) [Compound 19],≤ 5
16,CC(C(=O)Nc1ccc(I)cn1)C1C[C@H]2CC(c3ccnc4ccc(F)cc34)C[C@H]2C1 (stereo partly shown) [Compound 76],≤ 5
17,CC(C(=O)NC1CCOCC1)[C@H]1C[C@H]2C[C@@H](c3ccnc4ccc(F)cc34)C[C@H]2C1 (stereo partly shown) [Compound 3],> 100

row,Structure (SMILES),IC50 [nM]
1,CC(C(=O)Nc1ccc(Cl)cc1)N1C[C@H]2C[C@@H](c3ccnc4ccc(F)cc34)C[C@H]2C1 (stereo partly shown) [Compound 44],≤ 5
2,CC(C)(C(=O)Nc1ccc(C#N)nc1)[C@H]1C[C@H]2C[C@@H](c3ccnc4ccc(F)cc34)C[C@H]2C1 [Compound 89],≤ 5
3,CC(C(=O)Nc1ccc(C(F)(F)F)nc1)[C@H]1C[C@H]2C[C@@H](c3ccnc4ccc(F)cc34)C[C@H]2C1 (stereo partly shown) [Compound 80],≤ 5
4,N#Cc1ccc(NC(=O)C2([C@H]3C[C@H]4C[C@@H](c5ccnc6ccc(F)cc56)C[C@H]4C3)CC2)nc1 [Compound 98],≤ 5
5,C#Cc1ccc(NC(=O)C[C@@H]2C[C@@H]3CC(c4ccnc5ccc(F)cc45)=C[C@@H]3C2)nc1 [Compound 63],≤ 5
6,O=C(C[C@H]1C[C@H]2CC(c3ccnc4ccc(F)cc34)C[C@H]2C1)Nc1ccc(Cl)nc1 (stereo partly shown) [Compound 18],≤ 5
7,CC(C(=O)Nc1ccc(Cl)cn1)N1C[C@H]2C[C@@H](c3ccnc4ccc(F)cc34)C[C@H]2C1 (stereo partly shown) [Compound 99],5 to 25
8,CC(C(=O)Nc1ccc(Cl)nc1)[C@H]1C[C@]2(C)C[C@H](c3ccnc4ccc(F)cc34)C[C@]2(C)C1 (stereo partly shown) [Compound 43],25 to 100
9,O=C(Nc1ccc(Cl)cn1)C(F)(F)[C@H]1C[C@H]2C[C@@H](c3ccnc4ccc(F)cc34)C[C@H]2C1 [Compound 104],25 to 100
10,N#Cc1ccc(NC(=O)C[C@@H]2C[C@H]3CC(c4ccnc5ccc(F)cc45)C[C@H]3C2)cc1 (stereo partly shown) [Compound 23],≤ 5
11,CC#Cc1ccc(NC(=O)C(C)[C@H]2C[C@H]3C[C@@H](c4ccnc5ccc(F)cc45)C[C@H]3C2)nc1 (stereo partly shown) [Compound 82],> 100
12,C#Cc1ccc(NC(=O)C[C@@H]2C[C@H]3CC(c4ccnc5ccc(F)cc45)C[C@H]3C2)cn1 (stereo partly shown) [Compound 24],≤ 5
13,CC(C(=O)Nc1cncc(Cl)c1)[C@H]1C[C@H]2C[C@@H](c3ccnc4ccc(F)cc34)C[C@H]2C1 (stereo partly shown) [Compound 35],5 to 25
14,C#Cc1ccc(NC(=O)C2([C@H]3C[C@H]4C[C@@H](c5ccnc6ccc(F)cc56)C[C@H]4C3)CC2)cn1 [Compound 97],5 to 25
15,CC(C(=O)Nc1ccc(O)nc1)[C@H]1C[C@H]2C[C@@H](c3ccnc4ccc(F)cc34)C[C@H]2C1 (stereo partly shown) [Compound 28],> 100
16,"O=C(Nc1ccc(Cl)cn1)C1C[C@@H]2C[C@H](c3ccnc4ccc(F)cc34)C[C@@H]2C1 (single isomer, unassigned) [Compound 107]",> 100

# Results, then the molecule that gave them:
row,IC50 [nM],Structure (SMILES)
1,≤ 5,"C[C@@H](C(=O)Nc1ccc(Cl)cn1)[C@H]1C[C@H]2CC(c3ccnc4ccc(F)cc34)C[C@H]2C1 (single isomer, unassigned) [Compound 26A]"
2,> 100,O=C(Nc1ccc(Cl)cc1)O[C@@H]1C[C@@H]2C[C@H](c3ccnc4ccc(F)cc34)C[C@@H]2C1 [Compound 106]
3,5 to 25,COC(=O)c1ccc(NC(=O)C(C)[C@H]2C[C@H]3C[C@@H](c4ccnc5ccc(F)cc45)C[C@H]3C2)cc1 (stereo partly shown) [Compound 8]
4,> 100,Cn1nc(C2=C[C@@H]3C[C@H](CC(=O)Nc4ccc(Cl)cc4)C[C@@H]3C2)c2ccccc21 [Compound 55]
5,5 to 25,O=C(C[C@@]1(F)C[C@H]2C[C@@H](c3ccnc4ccc(F)cc34)C[C@H]2C1)Nc1ccc(Cl)cc1 [Compound 59]
6,≤ 5,C#Cc1ccc(NC(=O)C(C)[C@H]2C[C@H]3C[C@@H](c4ccnc5ccc(F)cc45)C[C@H]3C2)cn1 (stereo partly shown) [Compound 37]
7,> 100,CC(C(=O)Nc1ccc(-c2cnn(C3CC3)c2)nc1)[C@H]1C[C@H]2C[C@@H](c3ccnc4ccc(F)cc34)C[C@H]2C1 (stereo partly shown) [Compound 32]
8,5 to 25,N#Cc1ccc(NC(=O)C[C@H]2C[C@@H]3C[C@H](c4ccnc5ccc(F)cc45)C[C@@H]3C2)cn1 [Compound 71]
9,25 to 100,O=C(Nc1ccc(Cl)cc1)C(=O)N1C[C@H]2C[C@@H](c3ccnc4ccc(F)cc34)C[C@H]2C1 [Compound 47]
10,≤ 5,C#Cc1ccc(NC(=O)C[C@@H]2C[C@@H]3C[C@H](c4ccnc5ccc(F)cc45)C[C@@H]3C2)cn1 [Compound 66]
11,5 to 25,O=C(Nc1ccc(Cl)cc1)C1CC12CCC(c1ccnc3ccc(F)cc13)CC2 (stereo not shown) [Compound 56]
12,> 100,O=C(C[C@@H]1C[C@@H]2C[C@@H](N3CCCc4ccccc43)C[C@@H]2C1)Nc1ccc(Cl)cc1 [Compound 52]
13,25 to 100,CC(C(=O)Nc1ccc(Cl)nn1)[C@H]1C[C@H]2C[C@@H](c3ccnc4ccc(F)cc34)C[C@H]2C1 (stereo partly shown) [Compound 29]
14,≤ 5,N#Cc1ccc(NC(=O)C[C@@H]2C[C@@H]3CC(c4ccnc5ccc(F)cc45)=C[C@@H]3C2)nc1 (racemic) [Compound 69]
15,> 100,O=C(C[C@@H]1C[C@@H]2C[C@H](c3ccnc4ccc(F)cc34)C[C@@H]2C1)Nc1ccc2c(c1)OCC1COCCN21 (stereo partly shown) [Compound 13]
16,5 to 25,C#Cc1ccc(NC(=O)C[C@H]2C[C@@H]3CC(c4ccnc5ccc(F)cc45)=C[C@@H]3C2)nc1 [Compound 65]
17,5 to 25,"O=C(Nc1ccc(Cl)cn1)C1C[C@@H]2C[C@H](c3ccnc4ccc(F)cc34)C[C@@H]2C1 (single isomer, unassigned) [Compound 108]"
18,5 to 25,N#Cc1ccc(NC(=O)C[C@@H]2C[C@@H]3CC(c4ccnc5ccc(F)cc45)=C[C@@H]3C2)cn1 (relative stereo) [Compound 101]
19,25 to 100,CC(C(=O)Nc1ccc(C#CC(C)(C)O)cn1)[C@@H]1C[C@H]2C[C@@H](c3ccnc4ccc(F)cc34)C[C@H]2C1 (stereo partly shown) [Compound 78]
20,5 to 25,O=C(C[C@H]1C[C@H]2CC(c3ccnc4ccc(F)cc34)C[C@H]2C1)Nc1ccc(Cl)cn1 (stereo partly shown) [Compound 17]
21,≤ 5,CC(C(=O)Nc1ccc(Cl)nc1)C1=C[C@H]2C[C@@H](c3ccnc4ccc(F)cc34)C[C@H]2C1 (stereo partly shown) [Compound 39]
22,≤ 5,CC(C(=O)Nc1ccc(C#CC(C)(C)O)cn1)[C@H]1C[C@H]2C[C@@H](c3ccnc4ccc(F)cc34)C[C@H]2C1 (stereo partly shown) [Compound 77]

# From patent US11266640B2, “Polycyclic compound acting as IDO inhibitor and/or IDO-HDAC dual inhibitor” (Hangzhou Innogate Pharma Co., Ltd., priority 2017, dated 2022)
